# Measured values published in patent US10801068B2, “JAG1 expression predicts therapeutic response in NASH” (The Trustees of Columbia University in the City of New York, priority 2015, dated 2020).
# Like-named read-outs stand apart in the source and are kept apart here.
# How the values were obtained:
# [1] = test system: adult patients with biopsy-confirmed NASH; conditions: cited from earlier work
# [2] = test system: adult, non-diabetic patients with NASH; test: PIVENS trial (Pioglitazone versus Vitamin E versus Placebo), ancillary analysis of responders, NAS, ALT, HOMA-IR; format: in vivo, human
# Procedure: A pilot Ancillary Study to the Pioglitazone versus Vitamin E versus Placebo for the Treatment of nondiabetic Patients with Nonalcoholic Steatohepatitis (PIVENS) trial (Sanyal 2010), was conducted to ask whether hepatic Notch signaling tracks with disease pathology, and thus represent a novel biomarker of NAFLD/NASH.
# PIVENS investigators randomized adult, non-diabetic patients with NASH to therapy with placebo, vitamin E (800 IU daily) or pioglitazone (30 mg daily), and had strict inclusion and exclusion criteria for trial entry, as well as a thorough clinical phenotyping of these patients (Sanyal 2011; Sanyal 2010). The PIVENS primary outcome was an improvement in NASH pathology, defined by improved hepatocellular ballooning without increase in fibrosis, and either a 2+ point decrease in NAS or to a score of ≤3 points.
# Research-grade specimens were saved from subjects from the PIVENS trial for Ancillary Studies (Chalsani 2009). These samples were used to test the potential role of Notch signaling as either a biomarker or contributor to the NAFLD/NASH pathology.
# (§1) A subset (Table 1, right), of PIVENS research subjects had paired baseline and 96 wk cDNA available for analysis.
# HEYL = test: PIVENS paired baseline and 96 wk liver cDNA, HEYL expression; format: in vivo, human; conditions: Vitamin E-treated responders, baseline vs 96 wk
# Source text: as §1
# (§2) Sample size calculations are based from PIVENS data as described in Example 9A, and exclude pioglitazone-treated patients to be conservative. Using data derived from paired samples in Vitamin E-treated responders (mean difference of 1.11±0.51 fg/ng 18S for HES1 and 2.27±0.71 fg/ng 18S for HEYL), we calculated using unpaired t-testing with type I error=0.05 and type II error=[…], that 12 before-and-after biopsies in FLINT are required to detect a statistically significant difference in OCA-responders for both HES1 and HEYL.
# HES1 = test: PIVENS paired baseline and 96 wk liver cDNA, HES1 expression; format: in vivo, human; conditions: Vitamin E-treated responders, baseline vs 96 wk
# Source text: as §1, §2
# [3] = test system: adult, non-diabetic patients with NASH; conditions: final analysis; vitamin E 800 IU daily, pioglitazone 30 mg daily; cited from earlier work
# [4] = Cross-sectional study, nonresponders (NR)
# [5] = Cross-sectional study, responders (R)
# [6] = Cross-sectional study, number of subjects with NASH resolution or primary PIVENS outcome
# [7] = Longitudinal study, nonresponders (NR)
# [8] = Longitudinal study, responders (R)
# [9] = Longitudinal study, number of subjects
Compound,Responders (%) ([2]; Cross-sectional study),"ALT [2, 4] [U/L]","HOMA-IR [2, 4]","NAS [2, 4]","ALT [2, 5]","HOMA-IR [2, 5]","NAS [2, 5]","Responders [2, 6]",Responders (%) ([2]; Longitudinal study),"ALT [2, 7] [U/L]","HOMA-IR [2, 7]","NAS [2, 7]","ALT [2, 8] [U/L]","HOMA-IR [2, 8]","NAS [2, 8]","Responders [2, 9]",also measured
"CC[C@H]1[C@@H](O)[C@@H]2[C@H](CC[C@]3(C)[C@@H]([C@H](C)CCC(=O)O)CC[C@@H]23)[C@@]2(C)CC[C@@H](O)C[C@@H]12 [OCA, obeticholic acid]",–,–,–,–,–,–,–,–,–,–,–,–,–,–,–,–,"HOMA-IR ([1]; change, p=0.01): +13 U; insulin ([1]; change, p=0.02): +29 pmol/L; HDL cholesterol ([1]; in vivo): significant lowering; insulin resistance ([1]; in vivo): increased insulin resistance; insulin resistance ([1]; in vivo, listed as obeticholic acid): clearly induced insulin resistance"
"CCc1ccc(CCOc2ccc(CC3SC(=O)NC3=O)cc2)nc1 (stereo not shown) [PIO, pioglitazone]",(78%),46,5.5,4.8,34 ± U/L,2.9 ±,2.2 ±,29,(75%),56,4.1,5.0,41,3.3,3.0,3,–
vitamin E [VitE],(61%),55,5.6,4.6,33 U/L,5.2,2.7 ±,25,(60%),58,5.1,3.9,45,5.1,2.6,6,mean difference of HEYL in paired samples (HEYL): 2.27±0.71 fg/ng 18S; mean difference of HES1 in paired samples (HES1): 1.11±0.51 fg/ng 18S; PIVENS primary outcome (improvement in NASH pathology) [3]: met the primary outcome
